In US20260174797A1, “MAGNESIUM AND TRACE ELEMENT OXIDE PREMIX FOR ANIMAL NUTRITIONAL SUPPLEMENTATION, AND MANUFACTURING METHOD” (TIMAB MAGNESIUM, priority 2022, published 2026):
Marks after values point to notes of the source that are not given here.

Legend:
[1] = In vivo piglet test: growth performance (weight gain, feed consumption) D0 to D42 post-weaning; design: species or system piglets (Danbred×Duroc); details: for Daily weight gain: Overall period D0 to D42
Method: The effect of the premix of the invention on the performance and health of piglets in the post-weaning pre-starter stage (0-14 days post-weaning) was evaluated and compared to a standard oxide.
The use of the product of the invention ZnO—MgO was compared with standard zinc oxide at nutritional dose as well as at pharmacological dose in the contents indicated in Table 3.
Piglet weight was measured from D0 to D42 post-weaning in order to record daily weight gain and total weight at the end of the test. Feed consumption of each animal was also recorded each day of the test and recorded as an average to assess the feed conversion ratio (FCR). The FCR corresponds to the conversion index CI. It is equal to the average daily consumption reported to the average daily weight gain. The mean values+/−the standard deviation are presented per treatment.

[2] = in vivo
From the text: Each piglet is tagged, weighed and allocated in groups of 8 piglets per pen.
Analyses of the faeces after 14 days of use of the different treatments allowed to assess the amount of zinc not used by the animal and thus released into the soil, contributing to pollution.

Caco2 cells = details: Caco-2
[3] = Control Negative: ZnO 150 ppm additive (120 ppm zinc)
[4] = Control Positive: ZnO 3261 ppm additive (2620 ppm zinc)
[5] = Pre-starter phase D0 to D14, Control Negative: ZnO 150 ppm additive (120 ppm zinc)
[6] = Pre-starter phase D0 to D14, Control Positive: ZnO 3261 ppm additive (2620 ppm zinc)

[O]=[Zn] [Control, ZnO]
Live weight Day 0 [1, 3]: 6.75 kg
Live weight Day 14 [1, 3]: 9.61^b kg
Live weight Day 42 [1, 3]: 26.15^ab kg
Live weight Day 0 [1, 4]: 6.74 kg
Live weight Day 14 [1, 4]: 10.01^ab kg
Live weight Day 42 [1, 4]: 25.33^b kg
Daily weight gain [1, 3]: 0.463^ab kg/day
Daily weight gain [1, 4]: 0.444^b kg/day
Average daily feed consumption [1, 5]: 0.380 kg/day
Average daily weight gain [1, 5]: 0.205^b kg/day
Feed conversion ratio [1, 5]: 1.863^a kg/kg
Average daily feed consumption [1, 6]: 0.395 kg/day
Average daily weight gain [1, 6]: 0.233^ab kg/day
Feed conversion ratio [1, 6]: 1.705^b kg/kg
Average daily weight gain ([1]; Starter phase D15 to D42, Control Negative: ZnO 150 ppm additive (120 ppm zinc)): 0.611^ab kg/day
Average daily weight gain ([1]; Starter phase D15 to D42, Control Positive: ZnO 3261 ppm additive (2620 ppm zinc)): 0.571^b kg/day
zinc content measured in the feces [2]: 925 ppm

ZnO—MgO [Premix of the invention MgO—ZnO]
Total Zn absorbed on cell (Caco2 cells): 1.89 mg/L
